# Assay: Electrical conductivity of borax, silane polyether and borax-SPE complex solutions
# Type: physicochemical
# Conditions: for Conductivity: 25° C., 20 ml solution
# Description: Electrical conductivity is an effective quantitative tool to study complex formation in water for the system of a weak acid and a weak base. In the current study, the silane polyether acts as the weak acid (pH around 6) and borax acts as the weak base (pH around 9). The following analyses were carried out at 25° C. using a 20 ml solution of borax or SPE-1. Conductivity was measure at 45 minutes (immediately after complexation). The results are reported in Table 4a in units of microSiemens per centimeter (μS/cm).
# The electrical conductivity of 0.025 M solutions of borax-SPE complex were prepared at various molar ratios of borax to silane polyether (B:S). The following analyses were carried out at 25° C. using a 20 ml solution. Conductivity was measure at 45 minutes and again after 24 hours to assess the stability of the complex.
smiles,measurement,setting,value
"O=BOB(O)OB(O)OB=O [Borax, borax (Na2B4O7.10H2O)]",Conductivity,0.0005M,133 μS/cm
same,Conductivity,0.001M,260 μS/cm
same,Conductivity,0.005M,853 μS/cm
same,Conductivity,0.01M,1225 μS/cm
same,Conductivity,0.05M,4530 μS/cm
same,Conductivity,0.1M,9000 μS/cm
same,pH,weak acid / weak base in water,around 9

# Source: patent US9693563B2, “Boron-silane polyether complex” (3M INNOVATIVE PROPERTIES COMPANY, priority 2013, dated 2017)
